Laboratory results taken from PubChem BioAssay (NCI).
Values joined by “and” are separate entries in the source; they are usually repeats but may differ in a detail not shown here. Equal entries are not always repeated.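 Tested at 5 concentrations; 48 h exposure; 96-well plates; endpoints linearly interpolated, else capped at highest concentration. Abbreviation: GI50, concentration required for 50% inhibition of growth. The concentration for full growth arrest is given as TGI.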

Columns and labels:
Assay in all cases: DTP human tumour cell line panel, 48 h
[1] = test system: HCT-15 colon
[2] = test system: SW-620 colon
[3] = test system: 786-0 renal
[4] = test system: DU-145 prostate
[5] = test system: MALME-3M melanoma
[6] = test system: NCI/ADR-RES ovarian
[7] = test system: M14 melanoma
[8] = test system: MDA-MB-435
[9] = test system: SK-MEL-5 melanoma
[10] = test system: UACC-257 melanoma
[11] = test system: U251 CNS
[12] = test system: CCRF-CEM leukemia
[13] = test system: ACHN renal
[14] = test system: KM12 colon
[15] = test system: OVCAR-5 ovarian
[16] = test system: SF-539 CNS
[17] = test system: NCI-H522 lung
[18] = test system: SF-295 CNS
[19] = test system: OVCAR-4 ovarian
[20] = test system: HOP-62 NSCLC
[21] = test system: SK-OV-3 ovarian
[22] = test system: NCI-H23 lung
[23] = test system: K-562 leukemia
[24] = test system: SNB-75 CNS
[25] = test system: COLO 205 colon
[26] = test system: HT29 colon
[27] = test system: BT-549 breast
[28] = test system: HCC-2998 colon
[29] = test system: SK-MEL-2 melanoma
[30] = test system: A549 NSCLC
[31] = test system: RPMI-8226 leukemia
[32] = test system: UO-31 renal
[33] = test system: RXF 393 renal
[34] = test system: SF-268 CNS
[35] = test system: IGROV1 ovarian
[36] = test system: HOP-92 NSCLC
[37] = test system: NCI-H226 lung
[38] = test system: HS 578T breast
[39] = test system: CAKI-1 renal
[40] = test system: OVCAR-3 ovarian
[41] = test system: TK-10 renal
[42] = test system: SK-MEL-28 melanoma
[43] = test system: HL-60(TB) leukemia
[44] = test system: PC-3 prostate
[45] = test system: T-47D breast
[46] = test system: UACC-62 melanoma
[47] = test system: SR leukemia
[48] = test system: MOLT-4 leukemia
[49] = test system: MCF7 breast
[50] = test system: NCI-H460 lung
[51] = test system: SN12C renal
[52] = test system: EKVX NSCLC
[53] = test system: LOX IMVI melanoma
[54] = test system: OVCAR-8 ovarian
[55] = test system: A498 renal
[56] = test system: HCT-116 colon
[57] = test system: MDA-MB-231 breast

## CSc1ccc2c(c1)N(CCC1CCCCN1C)c1ccccc1S2 (centres undefined)
[1]
  GI50: 5.11 µM and 4.01 µM
  TGI: 17.5 µM and 14.6 µM
[2]
  GI50: 10.8 µM and 2.52 µM
  TGI: 24.6 µM and 7.23 µM
[3]
  GI50: 11.7 µM and 4.92 µM
  TGI: 25.7 µM and 19.4 µM
[4]
  GI50: 6.06 µM and 4.15 µM
  TGI: 17.9 µM and 14.2 µM
[5]
  GI50: 6.91 µM and 1.67 µM
  TGI: 23.8 µM and 3.67 µM
[6]
  GI50: 10.4 µM and 4.76 µM
  TGI: 24.1 µM and 18.5 µM
[7]
  GI50: 2.17 µM and 1.85 µM
  TGI: 4.89 µM and 3.76 µM
[8]
  GI50: 3.48 µM and 3.1 µM
  TGI: 13.6 µM and 11.1 µM
[9]
  GI50: 1.86 µM and 1.64 µM
  TGI: 3.89 µM and 3.02 µM
[10]
  GI50: 3.08 µM and 2.14 µM
  TGI: 11.6 µM and 6.3 µM
[11]
  GI50: 5.92 µM and 3.53 µM
  TGI: 19.2 µM and 12.2 µM
[12]
  GI50: 5.45 µM and 2.26 µM
  TGI: 21.1 µM and 27.4 µM
[13]
  GI50: 4.39 µM and 3.75 µM
  TGI: 15.2 µM and 13.5 µM
[14]
  GI50: 6.3 µM and 4.16 µM
  TGI: 18.8 µM and 16.1 µM
[15]
  GI50: 10.1 µM and 3.83 µM
  TGI: 22 µM and 13.2 µM
[16]
  GI50: 14.1 µM and 5.63 µM
  TGI: 28.2 µM and 18.2 µM
[17]
  GI50: 6.29 µM
  TGI: 21.8 µM
[18]
  GI50: 8.64 µM and 2.86 µM
  TGI: 22.6 µM and 8.7 µM
[19]
  GI50: 7.99 µM and 5.22 µM
  TGI: 20.3 µM and 16.9 µM
[20]
  GI50: 9.08 µM and 9.59 µM
  TGI: 24 µM and 25.9 µM
[21]
  GI50: 13 µM and 13.8 µM
  TGI: 27.5 µM and 29 µM
[22]
  GI50: 10.3 µM and 8.49 µM
  TGI: 24 µM and 22.7 µM
[23]
  GI50: 2.13 µM
  TGI: 4.4 µM
[24]
  GI50: 5.64 µM and 3.49 µM
  TGI: 22.1 µM and 12.3 µM
[25]
  GI50: 6.22 µM and 3.57 µM
  TGI: 24 µM and 13.2 µM
[26]
  GI50: 4.08 µM and 2.54 µM
  TGI: 15.1 µM and 7.9 µM
[27]
  GI50: 12.7 µM and 3.23 µM
  TGI: 27.7 µM and 10.4 µM
[28]
  GI50: 3.12 µM and 4.54 µM
  TGI: 11.5 µM and 14.1 µM
[29]
  GI50: 10.7 µM
  TGI: 25.8 µM
[30]
  GI50: 10.9 µM and 2.65 µM
  TGI: 24.1 µM and 10.3 µM
[31]
  GI50: 8.8 µM and 2.23 µM
  TGI: 27.1 µM and 6.05 µM
[32]
  GI50: 3.26 µM and 3.61 µM
  TGI: 14.5 µM and 15.4 µM
[33]
  GI50: 3.2 µM and 1.56 µM
  TGI: 15.4 µM and 5.23 µM
[34]
  GI50: 7.7 µM and 4.85 µM
  TGI: 21.6 µM and 17.7 µM
[35]
  GI50: 5.89 µM
  TGI: 20.1 µM
[36]
  GI50: 2.11 µM
  TGI: 8.51 µM
[37]
  GI50: 11.2 µM and 11.4 µM
  TGI: 28.5 µM and 30.3 µM
[38]
  GI50: 6.89 µM and 3.01 µM
  TGI: 28.1 µM and 13.2 µM
[39]
  GI50: 3.23 µM and 4.91 µM
  TGI: 13 µM and 18.3 µM
[40]
  GI50: 10.7 µM and 4.28 µM
  TGI: 23.7 µM and 21.7 µM
[41]
  GI50: 13.8 µM and 4.11 µM
  TGI: 28.5 µM and 13.4 µM
[42]
  GI50: 4.08 µM and 1.86 µM
  TGI: 14.3 µM and 3.63 µM
[43]
  GI50: 13.4 µM and 3.12 µM
  TGI: 30.3 µM and 9.22 µM
[44]
  GI50: 4.27 µM and 3.63 µM
  TGI: 16.6 µM and 13.8 µM
[45]
  GI50: 5.82 µM and 3.4 µM
  TGI: 23.3 µM and 11.4 µM
[46]
  GI50: 3.16 µM and 3.05 µM
  TGI: 13.6 µM and 7.13 µM
[47]
  GI50: 4.45 µM and 3.41 µM
  TGI: 17.2 µM and 12.4 µM
[48]
  GI50: 3.61 µM and 3.13 µM
  TGI: 13.6 µM and 10 µM
[49]
  GI50: 5.63 µM and 2.2 µM
  TGI: 21.7 µM and 4.48 µM
[50]
  GI50: 4.52 µM and 2.03 µM
  TGI: 17.9 µM and 4.28 µM
[51]
  GI50: 4.81 µM and 6.05 µM
  TGI: 18.8 µM and 19.3 µM
[52]
  GI50: 7.93 µM and 8.06 µM
  TGI: 23.5 µM and 22.7 µM
[53]
  GI50: 3.44 µM and 1.78 µM
  TGI: 14.8 µM and 3.34 µM
[54]
  GI50: 11.9 µM and 10.3 µM
  TGI: 27.5 µM and 29.3 µM
[55]
  GI50: 4.99 µM and 13.2 µM
  TGI: 22.2 µM and 28.7 µM
[56]
  GI50: 5.58 µM and 3.3 µM
  TGI: 19 µM and 12.9 µM
[57]
  GI50: 2.08 µM and 2.4 µM
  TGI: 5.99 µM and 6.11 µM
